The subject of experiment [1] is db/db mice. As to the kind of experiment: Intraperitoneal glucose tolerance test in diabetic db/db mice after oral administration. In kind it is in vivo. The following applies: db/db mice fasted 12 hours, glucose 0.5 g/kg i.p. half an hour later, vs PBS. As for the experimental part: The db/db mice were purchased from Jackson Laboratory, and then maintained and handled according to the guidelines of Academia Sinica Institutional Animal Care and Utilization Committee (Taiwan). Glibenclamide was purchased from MP Biomedical Inc.
Diabetic db/db mice aged 7-8 weeks were fasted for 12 hours (water allowed) and orally administered with PBS, cytopiloyne at 0.5 mg/kg or Glimepiride at 2.5 mg/kg. Half an hour later, the mice were intraperitoneally injected with glucose at 0.5 g/kg body weight. Blood glucose levels were monitored at 0, 0.5, 1, 1.5, 2 and 3 hours using Elite glucometer.

For experiment [2], the system named is RIN-m5F cells. As to the kind of experiment: Cytopiloyne-induced insulin secretion after pre-treatment with channel modulators / calcium chelator. The format is cell-based, rat. The note with it: then cytopiloyne 5 μg/ml for 10 min. As for the experimental part:
RIN-[…] cells were pre-treated with vehicle, diazoxide (100 μM), EGTA (10 μM), or nimodipine (1 μM) for 30 minutes. They were then incubated with cytopiloyne at 5 μg/ml for 10 min. Insulin levels in the cell medium were determined using an insulin Elisa kit.

In experiment [3] the test system is RIN-m5F cells. As to the kind of experiment: Insulin levels (intracellular anti-insulin staining, Elisa) in RIN-m5F cells. The format is cell-based, rat. The note with it: 2.5, 5, or 10 μg/ml for 24 hours, vs vehicle. As for the experimental part:
(§1) Primary β cells from mice were seeded in 9-cm^2 plates in a glucose-free RPMI 1640 medium. Both mouse primary β cells and RIN-m5F cells were treated with vehicle or cytopiloyne at 2.5, 5, or 10 μg/ml for 24 hours. The treated cells were subsequently subjected to intracellular staining with anti-insulin antibody (H86, Santa Cruz Biotechnology, CA, USA) and FITC-conjugated anti-rabbit antiserum (BD Biosciences, CA, USA) according to the manufacturer's instruction. The insulin levels in the cell media were determined using an insulin Elisa kit.

The test system of experiment [4] is db/db mice. Kind of experiment: Blood glucose levels in fasted diabetic db/db mice after intraperitoneal injection. The format is in vivo. The note with it: db/db mice 7-8 weeks old, fasted 12 hours; 25 μg/kg intraperitoneally; at two hours; vs PBS. The method, then: The db/db mice were purchased from Jackson Laboratory (Bar Harbor, Me., U.S.A.), and then maintained and handled according to the guidelines of Academia Sinica Institutional Animal Care and Utilization Committee (Taiwan).
Diabetic db/db mice of 7-8 weeks old were fasted for 12 hours (water allowed), and then intraperitoneally injected with phosphate-buffered saline (PBS) or cytopiloyne at 25 μg/kg, blood glucose levels in the mice were monitored at 0, 1, 2, 4, and 6 hours using Elite glucometer.

In experiment [5] the test system is Primary β cells from mice. As to the kind of experiment: Insulin levels (intracellular anti-insulin staining, Elisa) in primary β cells. The following applies: mouse primary β cells; 2.5, 5, or 10 μg/ml for 24 hours; vs vehicle. The format is cell-based. As for the experimental part: as §1
For another experiment, the system named is human insulin promoter. Kind of experiment: Insulin promoter luciferase reporter (pINS-Luc / pRL-TK) in transfected RIN-m5F cells. In kind it is cell-based. The note with it: 2.5, 10, or 15 μg/ml for 24 hours. The method, then: The pINS-DCR3 vector containing a human insulin promoter was digested by SphI and BamHI and then cloned into a pcDNAΔCMVlue vector to generate the plasmid pINS-Luc. The plasmid pRL-TK containing a thymidine kinase promoter and a Renilla luciferase reporter gene was purchased from Promega.
RIN-m5F cells transfected with pINS-Luc and pRL-TK plasmids were incubated with vehicle, high glucose (16.7 mM), or cytopiloyne at 2.5, 10, or 15 μg/ml for 24 hours.
(Reporter assays use an easily measured gene product as a stand-in for the process of interest.)

Experiment [6] deals with RIN-m5F cells. As to the kind of experiment: Insulin secretion into cell medium (insulin Elisa kit). The format is cell-based, rat. The note with it: 2.5, 10, and 15 μg/mL for 24 hours. As for the experimental part:
RIN-m5F cells, a rat β cell line, were obtained from the American Type Culture Collection (ATCC). Glucose-free RPMI medium was purchased from Life Technology. The cells were grown in a glucose-free RPMI 1640 medium supplemented with 10% FCS, penicillin (100 U/ml), streptomycin (100 μg/ml), 2-mercapoethanol (50 μM), sodium pyruvate (1 mM), and glutamate (292 μg/ml).
The cells were separately incubated with vehicle, glucose at a high dose (16.7 mM), glucose at a low dose (3.6 mM), and cytopiloyne at 2.5, 10, and 15 μg/mL for 24 hours. Insulin levels in the cell medium were determined using an insulin Elisa kit (Mercodia, Uppsala, Sweden).

Regarding `CCC1=C(C)CN(C(=O)NCCc2ccc(S(=O)(=O)NC(=O)N[C@H]3CC[C@H](C)CC3)cc2)C1=O` [Glimepiride, reference compound], the glucose tolerance entry in the experiment on db/db mice [1] (2.5 mg/kg orally) is “improved glucose tolerance”.

With `O=C(O)CN(CCOCCOCCN(CC(=O)O)CC(=O)O)CC(=O)O` [EGTA], in the experiment on RIN-m5F cells [2] (pre-treatment 10 μM for 30 minutes), the “effect on cytopiloyne-mediated insulin secretion” value is reported as “suppressed cytopiloyne-mediated insulin secretion”.

Regarding `CC#CC#CC#CC#CCCC(CO)OC1OC(CO)C(O)C(O)C1O` (stereo not drawn) [cytopiloyne], the insulin levels result (in the experiment on RIN-m5F cells [3]; in experiment [5]) was “elevated insulin levels” throughout. Further, in the experiment on db/db mice [4], the blood glucose levels entry is given as “significantly decreased”. For the same compound, the glucose tolerance result in the experiment on db/db mice [1] (0.5 mg/kg orally) was “improved glucose tolerance as effectively as Glimepiride”. Also, the insulin transcription result in the experiment on human insulin promoter was “stimulated insulin transcription in RIN-m5F cells in a dose-dependent manner”. In the experiment on RIN-m5F cells [6], the insulin secretion entry is reported as “significantly enhanced insulin secretion”.

For `CC1=NS(=O)(=O)c2cc(Cl)ccc2N1` [diazoxide], the “effect on cytopiloyne-induced insulin secretion” value in the experiment on RIN-m5F cells [2] (pre-treatment 100 μM for 30 minutes) was “suppressed cytopiloyne-induced insulin secretion”.

The record behind these values is patent publication US8147880B2, “Polyacetylenic compounds for stimulating insulin gene exression, production and secretion” (Academia Sinica, priority 2007, dated 2012).
